Source: US12600728B2, “Interleukin-17 inhibitors” (priority 2020, dated 2026)
Like-named read-outs stand apart in the source and are kept apart here.

Assays:
[1] = biological target: recombinant human IL-17AA (Homo sapiens, UniProt Q16552); assay: IL-6 release from NHDF cells, IL-17AA plus TNF-α stimulation; format: cell-based; conditions: IL-17AA 30 pM plus TNF-α 6 pM, 24 hours, IL-6 by ELISA
Outline: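 ELISA measured IL-6 in supernatants after 24 h at 37° C of NHDF cells with a compound/cytokine cocktail, pre-mixed 30 min at room temperature. Duplicates; 0.1% DMSO or 20% plasma final. IC50 from IL-6 remaining after subtracting the TNF-α-alone signal.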

[2] = biological target: biotinylated human IL-17A / AF647-labeled human IL-17RA (Homo sapiens, UniProt Q16552); assay: Human IL-17A×IL-17RA TR-FRET assay; format: binding; conditions: biotinylated human IL-17A 5 nM, AF647-labeled human IL-17RA 30 nM
biotinylated human IL-17A / AF647-labeled human IL-17RA, sequence (Q16552 24-155): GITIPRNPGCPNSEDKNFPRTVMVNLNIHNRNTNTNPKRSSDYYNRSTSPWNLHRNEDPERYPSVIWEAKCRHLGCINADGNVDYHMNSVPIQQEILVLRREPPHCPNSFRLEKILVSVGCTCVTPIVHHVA
Outline: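 Compounds tested in duplicate at each concentration; neutral controls contain all components with DMSO in place of compound.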

[3] = NHDF cells, read-out: IL17AA + TNF IC50 IL-6
[4] = TR-FRET, read-out: IL17AA FRET/ IL17Rawt IC50

recombinant human IL-17AA, sequence (Q16552 24-155): as above

Compound	IC50 [1, 3] [nM]	IC50 [2, 4] [nM]	IC50 ([1]; IL17AA + TNF IC50 IL-6, NHDF cells) [nM]	IC50 ([2]; IL17AA FRET/ IL17Rawt IC50, TR-FRET) [nM]
Cc1c(-c2ccc(NC(=O)[C@@H](NC(=O)c3ccnn3C)C3CCCCCC3)cc2)c(Cl)cc[n+]1[O-] [Example 47, (S)-4-chloro-3-(4-(2-cycloheptyl-2-(1-methyl-1H-pyrazole-5-carboxamido)acetamido)phenyl)-2-methylpyridine 1-oxide]	7	17		
Cc1c(-c2ccc(NC(=O)[C@@H](NC(=O)c3ccnn3C(C)C)C3CCCCCC3)cc2)c(Cl)cc[n+]1[O-] [Example 48, (S)-4-chloro-3-(4-(2-cycloheptyl-2-(1-isopropyl-1H-pyrazole-5-carboxamido)acetamido)phenyl)-2-methylpyridine 1-oxide]	1	12		
Cc1nocc1C(=O)N[C@H](C(=O)Nc1ccc(-c2c(Cl)cc[n+]([O-])c2C)cc1)C1CCC(F)(F)CC1 [Example 49, (S)-4-chloro-3-(4-(2-(4,4-difluorocyclohexyl)-2-(3-methylisoxazole-4-carboxamido)acetamido)phenyl)-2-methylpyridine 1-oxide]	31	58		
Cc1cc[n+]([O-])c(C)c1-c1ccc(NC(=O)[C@@H](NC(=O)c2ccnn2C(C)C)[C@H]2CCCc3ccccc32)cc1 [Example 50, 3-(4-((S)-2-(1-isopropyl-1H-pyrazole-5-carboxamido)-2-((S)-1,2,3,4-tetrahydronaphthalen-1-yl)acetamido)phenyl)-2,4-dimethylpyridine 1-oxide]	1	23		
CCc1nocc1C(=O)NC(C(=O)Nc1ccc(-c2c(Cl)cc[n+]([O-])c2C)cc1)C1CCC(F)(F)CC1 (stereo not shown) [Example 51, 4-chloro-3-(4-(2-(4,4-difluorocyclohexyl)-2-(3-ethylisoxazole-4-carboxamido)acetamido)phenyl)-2-methylpyridine 1-oxide]	62	66		
Cc1c(-c2ccc(NC(=O)[C@@H](NC(=O)c3ccnn3C)C3CCC(F)(F)CC3)cc2)c(Cl)cc[n+]1[O-] [Example 52, (S)-4-chloro-3-(4-(2-(4,4-difluorocyclohexyl)-2-(1-methyl-1H-pyrazole-5-carboxamido)acetamido)phenyl)-2-methylpyridine 1-oxide]	80	43		
Cc1c(-c2ccc(NC(=O)C(NC(=O)c3ccnn3C)C3CCC(C)CC3)cc2F)c(Cl)cc[n+]1[O-] [Example 56, 4-chloro-3-(2-fluoro-4-((S)-2-(1-methyl-1H-pyrazole-5-carboxamido)-2-((1r,4S)-4-methylcyclohexyl)acetamido)phenyl)-2-methylpyridine 1-oxide]			4	21

Further lines, with some results ahead:

IC50 [1, 3] [nM]	IC50 [2, 4] [nM]	Compound	IC50 ([1]; IL17AA + TNF IC50 IL-6, NHDF cells) [nM]	IC50 ([2]; IL17AA FRET/ IL17Rawt IC50, TR-FRET) [nM]
86	16	Cc1cc[n+]([O-])c(C)c1-c1ccc(NC(=O)[C@@H](NC(=O)c2ccoc2C)C2CCCCC2)cc1 [Example 53, (S)-3-(4-(2-cyclohexyl-2-(2-methylfuran-3-carboxamido)acetamido)phenyl)-2,4-dimethylpyridine 1-oxide]		
27	38	Cc1c(-c2ccc(NC(=O)[C@@H](NC(=O)c3ccnn3C)C3CC=C(F)CC3)cc2)c(Cl)cc[n+]1[O-] (stereo partly drawn) [Example 55, 4-chloro-3-(4-((2S)-2-(4-fluorocyclohex-3-en-1-yl)-2-(1-methyl-1H-pyrazole-5-carboxamido)acetamido)phenyl)-2-methylpyridine 1-oxide]		
12	37	Cc1nocc1C(=O)NC(C(=O)Nc1ccc(-c2c(Cl)cc[n+]([O-])c2C)c(F)c1)[C@H]1C[C@@H]2C[C@@H]2C1 (stereo partly drawn) [Example 57, 3-(4-(2-((1R,3s,5S)-bicyclo[3.1.0]hexan-3-yl)-2-(3-methylisoxazole-4-carboxamido)acetamido)-2-fluorophenyl)-4-chloro-2-methylpyridine 1-oxide]		
12	44	CCn1nccc1C(=O)NC(C(=O)Nc1ccc(-c2c(Cl)cc[n+]([O-])c2C)c(F)c1)[C@H]1C[C@@H]2C[C@@H]2C1 (stereo partly drawn) [Example 58, 3-(4-(2-((1R,3s,5S)-bicyclo[3.1.0]hexan-3-yl)-2-(1-ethyl-1H-pyrazole-5-carboxamido)acetamido)-2-fluorophenyl)-4-chloro-2-methylpyridine 1-oxide]		
